Data reported in patent US11130733B2, “4-OXO-alkylated tetramic acid compound, preparation method and use thereof” (BEIJING JOEKAI BIOTECH. LLC, priority 2017, dated 2021).
Where “and” joins values, the source holds several entries; their conditions need not be identical. Equal values may be shown once. Read-outs that look alike come from different tables or passages of the source.

Assay: Pharmacokinetic evaluation, plasma and brain concentrations
Format: in vivo, ICR mice
Settings: for concentration at 0.083 h / concentration at 0.25 h / concentration at 0.5 h / concentration at 1 h / concentration at 2 h / concentration at 4 h / concentration at 6 h / concentration at 8 h: male, ICR, mouse
Description: Distribution of a medicament in the body is one of the important indicators to determine the dose and efficacy of the medicament. Thus, excellent candidate compounds should have good pharmacokinetic characteristics. In addition, since the compound of the present invention is intended to be used for the treatment of Alzheimer's disease, which is a disease of the central nervous system, the distribution pattern of the compound in the brain and the blood is also one of the subjects to be investigated. In this experiment, compound 50561 was administered to mice […] or by gavage, and the concentrations of the compound in blood and brain were measured at specific time points to determine the pharmacokinetic parameters.
Forty-eight male ICR mice purchased from Shanghai Sippr-BK Lab. Animal Co. Ltd were used in this experiment. The oral group was fasted for 10-14 hours before administration, and feeding was restored 4 hours after administration. Samples were collected from the intravenous administration group 0.083 h, 0.25 h, 0.5 h, 1 h, 2 h, 4 h, 8 h, and 24 h after administration, respectively: while for the oral administration group, about 0.5 mL of blood was collected from the heart 0.25 h, 0.5 h, 1 h, 2 h, 4 h, 6 h, 8 h, and 24 h after administration, respectively. Heparin sodium was used for anticoagulation. Blood samples were collected and placed on ice, and plasma was separated by centrifugation (centrifugation conditions: 8000 rpm, 6 minutes, 4C). The collected plasma was stored at −80° C. before analysis. After collecting plasma samples, brain tissues were collected, washed with normal saline, water-absorbed by filter paper, weighed immediately, and then placed in labeled tubes (one tube for one brain tissue). The samples to be tested were temporarily placed on ice before being stored in a −80° C. refrigerator.
The analysis methods of biological samples and the analysis of all samples were done by Medicilon Pharmaceutical Technology (Shanghai) Co., Ltd. The intraday accuracy evaluation of the quality control samples was carried out while analyzing the samples, and the accuracy of over 66.7% of the quality control samples was required to be between 80-120%.
When calculating the pharmacokinetic parameters, the BLQ before Cmax (including “No peak”) was calculated as 0; BLQ occurring after Cmax (including “No peak”) was not involved in the calculation. WinNonlin Professional V 5.2 (Pharsight, USA) was adopted to calculate the following pharmacokinetic parameters: AUC(0-t), AUC(0-∞), T1/2, MRT(0-∞), Cmax, and Tmax. The tissue/plasma ratio was to be calculated by the following formula based on the blood concentration data at different time points: Tissue/plasma ratio (mL/g)=tissue blood concentration/plasma blood concentration.

[1] = brain, iv, 1 mg/kg, IV 1 mg/kg, read-out: Brain tissue concentration, Mean
[2] = brain, iv, 1 mg/kg, IV 1 mg/kg, read-out: Brain tissue concentration, individual mice
[3] = brain, po, 10 mg/kg, PO 10 mg/kg, read-out: Brain tissue concentration, Mean
[4] = brain, po, 10 mg/kg, PO 10 mg/kg, read-out: Brain tissue concentration, individual mice
[5] = plasma, iv, 1 mg/kg, IV 1 mg/kg, read-out: Blood concentration, Mean
[6] = plasma, iv, 1 mg/kg, IV 1 mg/kg, read-out: Blood concentration, individual mice
[7] = plasma, po, 10 mg/kg, PO 10 mg/kg, read-out: Blood concentration, Mean
[8] = plasma, po, 10 mg/kg, PO 10 mg/kg, read-out: Blood concentration, individual mice

O=C1C=C(OCc2ccc(F)cc2)[C@H](Cc2ccccc2)N1 [Compound 50561]
Brain/plasma ratio, Mean (PO 10 mg/kg, 6 hr): 2.511 mL/G | Blood concentration, individual mice (PO 10 mg/kg, 6 hr, 10 mg/kg): 6.30 ng/mL and 8.82 ng/mL | Brain tissue concentration, individual mice (PO 10 mg/kg, 6 hr, 10 mg/kg): 11.72 ng/G and 17.40 ng/G and 25.83 ng/G | Brain/plasma ratio, individual mice (PO 10 mg/kg, 6 hr, 10 mg/kg): 1.839 mL/G and 2.764 mL/G and 2.929 mL/G | Brain/plasma ratio, Mean (PO 10 mg/kg, 8 hr): 2.009 mL/G | Blood concentration, individual mice (PO 10 mg/kg, 8 hr, 10 mg/kg): 4.77 ng/mL and 3.88 ng/mL and 1.63 ng/mL | Brain tissue concentration, individual mice (PO 10 mg/kg, 8 hr, 10 mg/kg): 9.49 ng/G and BLQ | Brain/plasma ratio, individual mice (PO 10 mg/kg, 8 hr, 10 mg/kg): 1.575 mL/G and 2.443 mL/G | Blood concentration, individual mice (PO 10 mg/kg, 24 hr): BLQ | Brain tissue concentration, individual mice (PO 10 mg/kg, 24 hr): BLQ | content in brain tissue compared with blood (after intravenous injection and oral administration): higher than that in the blood | concentration at 0.083 h [1]: 738 ng/g | concentration at 0.25 h [1]: 454 ng/g | concentration at 0.25 h [2]: 462 ng/g | concentration at 0.5 h [1]: 204 ng/g | concentration at 0.5 h [2]: 148 ng/g | concentration at 1 h [1]: 43.1 ng/g | concentration at 1 h [2]: 42.6 ng/g | concentration at 0.25 h [3]: 1220 ng/g | concentration at 0.25 h [4]: 1470 ng/g | concentration at 0.5 h [3]: 1600 ng/g | concentration at 1 h [3]: 1120 ng/g | concentration at 1 h [4]: 906 ng/g | concentration at 2 h [3]: 335 ng/g | concentration at 4 h [3]: 41.7 ng/g | concentration at 6 h (brain, po, 10 mg/kg, PO 10 mg/kg, 6 hr, read-out: Brain tissue concentration, Mean): 18.3 ng/g | concentration at 8 h (brain, po, 10 mg/kg, PO 10 mg/kg, 8 hr, read-out: Brain tissue concentration, Mean): 8.5 ng/g | concentration at 8 h (brain, po, 10 mg/kg, PO 10 mg/kg, 8 hr, read-out: Brain tissue concentration, individual mice): 7.52 ng/g | concentration at 0.083 h [5]: 302 ng/mL | concentration at 0.25 h [5]: 195 ng/mL | concentration at 0.25 h [6]: 188 ng/mL | concentration at 0.5 h [5]: 82 ng/mL | concentration at 0.5 h [6]: 58.1 ng/mL | concentration at 1 h [5]: 15.3 ng/mL | concentration at 0.25 h [7]: 653 ng/mL | concentration at 0.25 h [8]: 754 ng/mL | concentration at 0.5 h [7]: 727 ng/mL | concentration at 0.5 h [8]: 1020 ng/mL | concentration at 1 h [7]: 499 ng/mL | concentration at 1 h [8]: 365 ng/mL | concentration at 2 h [7]: 144 ng/mL | concentration at 4 h [7]: 18.9 ng/mL | concentration at 6 h (plasma, po, 10 mg/kg, PO 10 mg/kg, 6 hr, read-out: Blood concentration, Mean): 7.16 ng/mL | concentration at 6 h (plasma, po, 10 mg/kg, PO 10 mg/kg, 6 hr, read-out: Blood concentration, individual mice): 6.37 ng/mL | concentration at 8 h (plasma, po, 10 mg/kg, PO 10 mg/kg, 8 hr, read-out: Blood concentration, Mean): 3.43 ng/mL
